Patent US10780067B2, “Endoxifen for local transdermal therapy to the breast” (Northwestern University, priority 2016, dated 2020)

How the values were obtained:
[1] = tested on: maspin; experiment: Maspin expression (H score) by immunohistochemistry, presurgical trial; format: in vivo, human; conditions: mean ± SD
Description: (§1) Assessments similar to those performed at baseline were repeated on the day prior to, or on the morning of surgery. During surgery, breast adipose tissue from the surgical sample was snap frozen and stored at −80° C. for measurement of tamoxifen and metabolites. The samples were obtained from a location adjacent to the DCIS lesion to provide uniformity between participants undergoing breast conservation and mastectomy. The paraffin block of the core and excision samples were acquired by the recruiting institution and 10 sections from each specimen were submitted to the NU Pathology Core Facility. The sections were cut in batches (with pre- and post-treatment samples in the same batch), shipped cold, and processed for immunohistochemistry within four weeks.
(§2) Secondary endpoints were 1) to compare concentrations of tamoxifen and its metabolites [4-OHT, endoxifen, N-desmethyl tamoxifen (NDT)] in breast tissue, plasma and NAF obtained on the day of surgery; 2) to assess changes in known tamoxifenmodulated pathways in the breast (COX-2 and maspin protein expression, [19,20]) and plasma (SHBG, IGF-1 [14]). Side effect endpoints were 1) the incidence of hot flashes at baseline and before surgery; 2) changes in coagulation related proteins in women on the gel and the oral arms from baseline to immediately before surgery.
(§3) Immunohistochemical (IHC) assessment of these markers was performed on paraffin embedded sections of the core and excision specimens, using standard IHC techniques and MCF7, HCT116 and H292 cells as controls. For maspin we used primary mouse monoclonal antibody (Clone-G167-70,BD Pharmingen, San Jose, Calif.), dilution 1:200; for COX-2, primary mouse monoclonal antibody (Clone-CX-294, Dako, Denmark), dilution 1:100-; and for Ki67, primary mouse monoclonal antibody (Clone-MIB-1, Dako, Denmark), dilution 1:100-antigen. Dako Envision Plus system HRP labeled polymer for 20 min at 37° C. was used as the detection system. […] The Ki67 LI was assessed on an average of 300 DCIS cells at 40× magnification. […]

[2] = tested on: von Willebrand factor; experiment: Plasma von Willebrand factor immuno-turbidimetric assay, presurgical trial; format: in vivo, human; conditions: mean ± SD
Description: (§4) Plasma samples collected with anticoagulant K3-EDTA were used for human IGF-1 and SHBG assays, and coagulation protein assays (factor VIII, factor IX, von Willebrand factor, and protein S)[23]. The human IGF-1 and SHBG assays were performed with Quantikine Enzyme-linked immunosorbent assay (ELISA) Kits (R&D Systems, Cat # DG100 for IGF-1, and Cat # DSHBGO for SHBG assay). The lower limit of detection was 56 pg/ml, and 5 pmol/L; % CV values were 4.3 and 5.6 for IGF-1, and SHBG assay, respectively. Factor VIII, and factor IX were determined with VisuLize™ antigen ELISA kits (Affinity Biologicals Inc.). von Willebrand factor was measured with immune-turbidimetric assay (Diagnostica Stago Inc. Cat #00518) by STAR analyzer, and total protein S was assayed with an ELISA kit (REAADSR Inc.)

[3] = tested on: factor IX; experiment: Plasma factor IX antigen ELISA, presurgical trial; format: in vivo, human; conditions: mean ± SD
Description: as §4

[4] = tested on: COX-2; experiment: COX-2 expression (H score) by immunohistochemistry, presurgical trial; format: in vivo, human; conditions: mean ± SD
Description: as §1, §2, §3

[5] = oral-T vs 4-OHT gel 2 mg daily, 2-3 weeks; cited from earlier work
[6] = 28 days; cited from earlier work
[7] = Study 1: oral tamoxifen vs transdermal 4-OHT and endoxifen gel, mammary and plasma concentrations; conditions: for concentration at 6 weeks: athymic nude (Hsd:RHFoxn1^rnu/rnu), rat, oral, 3 mg/kg/day
Description: (Z) tamoxifen was prepared as 3 mg/mL in sesame oil. For transdermal gel formulations, 4-OHT (E:Z=50:50) (1 mg/mL), (Z) endoxifen (1 mg/mL), and telapristone (1.5 mg/mL) were prepared in 60% (v/v) ethanol-phosphate buffer containing 0.5% (v/v) oleic acid [13] with 1.5% (w/v) Klucel hydroxypropyl cellulose.
Athymic nude rats (Hsd:RHFoxn1^rnu/rnu, Harlan Laboratories, Inc.) were provided with standard laboratory food and water ad libitum. […] In the gel groups, animals were anesthetized with isoflurane inhalation; the skin surface of axillary mammary glands was cleaned with alcohol swabs and air-dried; 0.1 mL drug gel was applied using a template with an exposed ellipse (π×R1×R2=π1 cm×0.6 cm) around the no. 2 nipple on each side and allowed to dry (total of 1, 0.5 mg/kg/day on each side); animals wore jackets fitted over the forelegs, to prevent loss of gel through grooming.
In both studies, rats were euthanized after 6 weeks of treatment for blood and tissue collections. The treated skin area was cleansed with alcohol prior to dissection. Blood samples were collected from the heart. We collected the whole mammary glands (1 axillary and 1 inguinal) per animal and measured their drug concentrations separately.
The concentrations of all the drugs used in rats and humans were determined by liquid chromatography-tandem mass spectroscopy (API 3000; AB SCIEX, Foster City, Calif., USA). […] The mobile phase was A: 0.1% formic acid in water (v/v) and B: 0.1% formic acid in acetonitrile (v/v). Details of sample processing and quantitation methods are described below. The lowest limits of quantification (LLOQ) were as follow: tamoxifen and N-desmethyl tamoxifen (NDT) (plasma 10 ng/mL; tissue 40 ng/g); 4-OHT and endoxifen (plasma 0.5 ng/mL; tissue 2 ng/g); telapristone and N-desmethyl telapristone (d-telapristone) (plasma 1 ng/mL; tissue 1.5 ng/g); and diclofenac (plasma 0.5 ng/mL; tissue 2 ng/g).
For preclinical studies, the summary statistics as medians and interquartile range (IQR) were reported by treatment group for each analyte obtained from plasma, axillary, and inguinal mammary glands. Concentration differences of each analyte between treatment groups and differences between mammary glands within each treatment group were assessed via the Wilcoxon rank-sum test, and the Wilcoxon signed rank-sum test, respectively.
(Z) tamoxifen and metabolites [(Z) NDT, (E) 4-OHT, and (Z) 4-OHT, (Z) endoxifen] were determined using LC-MS/MS (API 3000; AB SCIEX, Foster City, Calif.). A 100 μL aliquot of plasma was mixed with 200 μL of acetonitrile containing 1 ng each of the deuterated analogs of the analytes (TRC, Toronto, Canada). […]

[8] = BESS quality of life questionnaire and CTCAE adverse events, presurgical trial; format: in vivo, human
Description: All participants provided informed consent. Baseline assessments included a history and physical, explanation of gel application, completion of the Breast Cancer Prevention Trial Eight Symptom Scale (BESS) questionnaire, collection of a venous blood sample, and collection of nipple aspirate fluid (NAF) from NAF yielders. […] Treatment began within 5 days post-randomization and ended on the day prior to surgical resection. Participants were instructed to apply the gel to the entire skin envelope of each breast each morning, after a shower. Duration of therapy was 6-10 weeks. Compliance was assessed through participant diaries, counts of returned pills and of returned gel canisters. Participants who took at least 80% of the prescribed dose were considered compliant.
The BESS Questionnaire was repeated at day 15 and at the end of treatment (1 day before surgery or day of surgery), and the post-surgical visit (approximately 7-14 days after surgery).
For continuous variables in the immunochemistry, drug concentration, and blood coagulation data, means and standard deviations are reported; the significance of changes between baseline and post-treatment within groups were evaluated with the paired t-test, and differences between treatment groups assessed using the unpaired t-test. For categorized demographic data, we examined the association of these variables with treatment group via Fisher's exact test. For the analysis of quality of life, the 33 symptoms in the BESS Questionnaire were divided into eight clusters as described by Cella et. al.. The mean score within each cluster was used to evaluate significance of changes from baseline to posttreatment within groups as well as the differences between treatment groups using the Wilcoxon signed-rank test.

CC/C(=C(\c1ccccc1)c1ccc(OCCN(C)C)cc1)c1ccccc1 [Tamoxifen, (Z)-tamoxifen]
Maspin post-treatment ([1]; DCIS lesions after 6-10 weeks): 142 ± 69 H-score | Maspin baseline ([1]; DCIS lesions before treatment): 107 ± 56 H-score | Maspin Changes from baseline ([1]; DCIS lesions, 6-10 weeks): 35 ± 71 H-score | % vWF post-treatment ([2]; plasma after 6-10 weeks): 218.6 ± 134.6% | % vWF baseline ([2]; plasma before treatment): 167.4 ± 89.2% | % vWF Changes from baseline ([2]; plasma): 51.2 ± 71.0% | % Factor IX post-treatment ([3]; plasma after 6-10 weeks): 87.0 ± 12.2% | % Factor IX baseline ([3]; plasma before treatment): 86.6 ± 8.8% | % Factor IX Changes from baseline ([3]; plasma): 0.4 ± 10.2% | COX-2 post-treatment ([4]; DCIS lesions after 6-10 weeks): 78.9 ± 63.5 H-score | COX-2 baseline ([4]; DCIS lesions before treatment): 67.2 ± 72.4 H-score | COX-2 Changes from baseline ([4]; DCIS lesions, 6-10 weeks): 11.7 ± 109.8 H-score | median 4-OHT concentration in nontumor breast tissue (previous study) [5]: 2.0 ng/g | ENX concentration in serum, oral TAM 1 mg daily [6]: 3 ng/mL | ENX concentration in serum, oral TAM 5 mg daily [6]: 9 ng/mL | ENX concentration in serum, oral TAM 20 mg daily [6]: 38 ng/mL | ENX concentration in tumor tissue, oral TAM 1 mg daily [6]: 31 ng/g | ENX concentration in tumor tissue, oral TAM 5 mg daily [6]: 80 ng/g | ENX concentration in tumor tissue, oral TAM 20 mg daily [6]: 340 ng/g | concentration at 6 weeks ([7]; axillary mammary gland): 44.2 ng/g | concentration at 6 weeks ([7]; inguinal mammary gland): 69.6 ng/g | concentration at 6 weeks ([7]; plasma): 8 ng/mL | deaths, weight loss, general health, skin irritation ([7]; rats, end of 6 week experiment): no deaths, no weight loss, and no skin irritation | BESS Vasomotor symptom cluster, baseline ([8]; hot flashes, night sweats, cold sweats, mean score ± SD): 0.33 ± 0.45 | BESS Bladder symptom cluster, Changes from baseline ([8]; mean score ± SD): 0.11 ± 0.49 | BESS Bladder symptom cluster, baseline ([8]; mean score ± SD): 0.14 ± 0.36 | BESS Bladder symptom cluster, post-treatment ([8]; mean score ± SD): 0.25 ± 0.33 | BESS Body Image symptom cluster, Changes from baseline ([8]; mean score ± SD): −0.04 ± 0.87 | BESS Body Image symptom cluster, baseline ([8]; mean score ± SD): 0.68 ± 0.77 | BESS Body Image symptom cluster, post-treatment ([8]; mean score ± SD): 0.64 ± 0.89 | BESS Body pain symptom cluster, Changes from baseline ([8]; mean score ± SD): 0.43 ± 0.92 | BESS Body pain symptom cluster, baseline ([8]; mean score ± SD): 0.76 ± 1.12 | BESS Body pain symptom cluster, post-treatment ([8]; mean score ± SD): 1.19 ± 1.11 | BESS Cognitive symptom cluster, Changes from baseline ([8]; mean score ± SD): 0.10 ± 0.86 | BESS Cognitive symptom cluster, baseline ([8]; mean score ± SD): 0.62 ± 0.61 | BESS Cognitive symptom cluster, post-treatment ([8]; mean score ± SD): 0.71 ± 1.18 | BESS Gastrointestinal symptom cluster, Changes from baseline ([8]; mean score ± SD): −0.10 ± 0.24 | BESS Gastrointestinal symptom cluster, baseline ([8]; mean score ± SD): 0.12 ± 0.31 | BESS Gastrointestinal symptom cluster, post-treatment ([8]; mean score ± SD): 0.02 ± 0.09 | BESS Sexual problems symptom cluster, Changes from baseline ([8]; mean score ± SD): −0.21 ± 0.54 | BESS Sexual problems symptom cluster, baseline ([8]; mean score ± SD): 0.32 ± 0.72 | BESS Sexual problems symptom cluster, post-treatment ([8]; mean score ± SD): 0.11 ± 0.40 | BESS Vaginal symptom cluster, Changes from baseline ([8]; mean score ± SD): 0.07 ± 0.19 | BESS Vaginal symptom cluster, baseline ([8]; mean score ± SD): 0.00 ± 0.00 | BESS Vaginal symptom cluster, post-treatment ([8]; mean score ± SD): 0.07 ± 0.19 | BESS Vasomotor symptom cluster, Changes from baseline ([8]; mean score ± SD): 0.55 ± 1.05 | BESS Vasomotor symptom cluster, post-treatment ([8]; mean score ± SD): 0.88 ± 1.26 | BESS Vaginal symptom cluster, baseline ([8]; mean score ± SD, listed as oral-T): 0.00 | serious adverse events (CTCAE) ([8]; whole study): no serious adverse events
